The target of assay [1] is T1, full-length hnRNPA2B1 (1–353 aa) (Homo sapiens, UniProt P22626).
T1 construct: 1–353 aa; His; made in house; host or cells: bacteria (pET28A vector)
The assay is described as follows: BLItz association-dissociation binding assay, full-length hnRNPA2B1. To be noted: 6XHis tagged protein, Con. 5 uM, biotin-MO-460 on streptavidin tip. As to the method: The binding capacity of hnRNPA2B1 to Biotin-MO-460 was also analyzed using a BLItz™ (Fortebio, Inc., CA, US) instrument with a streptavidin-coated biosensor tip (Pall, USA). The streptavidin-coated tips were pre-wetted for 10 min in an incubation buffer (10 mM HEPES pH 7.4, 1% BSA and 0.05% Tween 20). The streptavidin-coated tips were immobilized with 1 μM Biotin-MO-460 in incubation buffer (10 mM HEPES pH 7.4, 1% BSA and 0.05% Tween 20) for 5 min. […] The concentrations were then incubated with HEPES for another 3 min to desorb the protein. Analysis of the accurate and precise kinetic constants was performed by the BLItz data analysis software (BLItz Pro 1.1).

Assay [2] concerns HIF-1α mRNA in Hep3B cells. The assay is described as follows: HIF-1α mRNA level by qRT-PCR / RT-PCR. The format is cell-based, human. As to the method: Cells were lysed with TRIzol (Invitrogen) and proteins were extracted with chloroform. RNAs were precipitated with isopropanol and washed with 75% ethanol diluted with DEPC-treated water. Purity and concentration of RNA was analyzed using nano drop. The cDNA was synthesized from total RNA in a reaction mixture containing 5 × reaction buffer (250 mM Tris-HCl pH 8.3, 375 mM KCl, 15 mM MgCl2, 50 mM DTT), 50 μg/mL Oligo-dT, 10 mM dNTP, and 50,000 U M-MLV reverse transcriptase (Promega, Madison, WI). Amplified PCR products obtained with β actin-specific primers served as internal controls. The sequences of the primers used for this study are listed in Supplementary Materials and Methods 5 and 6.

In assay [3] the test system is hnRNPA2B1 protein and HIF-1α mRNA complex. The assay is described as follows: RNA-immunoprecipitation of hnRNPA2B1 with HIF-1α mRNA. To be noted: Hep3B cells, mimetic hypoxia, 50 μM, 24 h. The format is cell-based, human. How it is done: Hep3B cells were cultured at 37 °C in a 5% atmospheric concentration of CO2 and 200 μM of CoCl2 in the presence or absence of MO-460 (50 μM) and the cells harvested after 24 h. Total lysates of Hep3B were prepared in nuclear isolation buffer [128 mM sucrose, 40 mM Tris-HCl pH 7.5, 20 mM MgCl2, 4% Triton-X100]. After clarifying by centrifugation at 2500× g for 15 min at 4 °C the nuclear pellet was resuspended in RIP buffer [150 mM KCl, 25 mM Tris-HCl pH 7.5, 5 mM EDTA, 0.5 mM DTT, 0.5% Triton-X100, and protease inhibitor cocktail], and then incubated with 4 μg of either control IgG or the anti-hnRNPA2B1 antibody. After 1.5 h of incubation, protein-G agarose beads (Santa Cruz Biotechnologies, Santa Cruz, CA) were added and then precipitated. RNAs were purified from 90% of the samples. Eluted RNAs were complemented by reverse transcriptase with random primers. cDNAs were used in the subsequent PCR reactions with the indicated primer sets. The resulting PCR products were separated on a 1.5% agarose gel. The other 10% of the samples from which RNA was not collected were separated by SDS-PAGE and then immunoblotted with anti-hnRNPA2B1 antibody.

The target of another assay is T2, HIF-1α protein (Homo sapiens, UniProt Q16665).
T2 construct: endogenous in cells; host or cells: Hep3B (cytosolic and nuclear lysates, CoCl2-treated)
T2 sequence (Q16665 whole entry): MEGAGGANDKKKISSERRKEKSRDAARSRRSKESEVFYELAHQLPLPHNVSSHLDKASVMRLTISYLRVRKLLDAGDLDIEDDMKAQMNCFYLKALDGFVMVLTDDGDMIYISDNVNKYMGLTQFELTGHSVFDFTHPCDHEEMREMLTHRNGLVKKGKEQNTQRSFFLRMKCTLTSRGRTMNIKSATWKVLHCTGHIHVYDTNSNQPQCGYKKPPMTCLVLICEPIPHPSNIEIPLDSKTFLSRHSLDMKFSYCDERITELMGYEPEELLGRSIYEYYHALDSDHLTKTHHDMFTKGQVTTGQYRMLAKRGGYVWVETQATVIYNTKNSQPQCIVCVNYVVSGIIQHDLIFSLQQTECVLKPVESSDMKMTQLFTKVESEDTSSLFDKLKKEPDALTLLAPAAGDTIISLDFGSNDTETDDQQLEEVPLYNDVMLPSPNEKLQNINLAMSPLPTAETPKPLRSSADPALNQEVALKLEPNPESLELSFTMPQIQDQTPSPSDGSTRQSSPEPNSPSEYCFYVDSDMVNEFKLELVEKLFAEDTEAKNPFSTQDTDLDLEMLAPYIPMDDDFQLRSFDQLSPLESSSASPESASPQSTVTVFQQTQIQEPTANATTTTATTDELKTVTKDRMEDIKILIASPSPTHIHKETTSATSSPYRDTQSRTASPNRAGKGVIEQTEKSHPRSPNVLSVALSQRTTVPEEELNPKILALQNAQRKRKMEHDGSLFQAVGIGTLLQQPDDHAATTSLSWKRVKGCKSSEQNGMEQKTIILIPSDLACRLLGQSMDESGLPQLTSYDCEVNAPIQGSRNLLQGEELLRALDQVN
As to the kind of experiment: Affinity capture with Biotin-MO-460 followed by LC/MS. The format is binding. To be noted: two rounds of the affinity capture experiment. How it is done: We synthesized biotinylated MO-460 using a recently reported method. Fractionation and enrichment of cytosol and nuclei were performed as described previously. Briefly, Hep3B (Human hepatocyte cancer cell line) was harvested and washed twice with PBS after treatment with 200 μM of CoCl2 for 24 h, and then resuspended in lysis buffer [10 mM HEPES pH 7.9, 10 mM KCl, 0.1 mM EGTA, 0.1 mM EDTA, 0.5 mM PMSF, 0.025% 2-Mercaptoethanol, 1.6% NP-40, and protease inhibitor cocktail]. After cell lysis and homogenization by vortexing for 10 s, the insoluble material was removed by centrifugation. The supernatant was collected as a cytosol-enriched lysate. The pellet was resuspended in nuclear extract buffer [20 mM HEPES pH 7.9, 400 mM NaCl, 1 mM EGTA, 1 mM EDTA, 1 mM DTT, 1 mM PMSF, protease inhibitor cocktail]. The pellet was then vortexed vigorously at 4 °C to separate the insoluble material. After the cytosol-enriched lysate (97.9 μg of protein) and the nuclei-enriched lysate (67.5 μg of protein) were precleared by incubation with NeutrAvidine^TM agarose-resins (Thermo Scientific) that were conjugated with biotin-linker (cytosol fraction: 600 μM, nuclear fraction: 1200 μM) for 12 h at 4 °C, the cleared cell lysate was incubated with NeutrAvidine^TM agarose-resins bound -Biotin-MO-460 (cytosol fraction: 200 μM, nuclear fraction: 400 μM) for 16 h at 4 °C, respectively. […]

Each structure is given as a SMILES string. “And” between values parts separate entries of the source, which are not always exact repeats. Equal entries are not always repeated. “Also recorded” adds a separate entry of the source.

T1 sequence (P22626 whole entry, the tested form may be a part): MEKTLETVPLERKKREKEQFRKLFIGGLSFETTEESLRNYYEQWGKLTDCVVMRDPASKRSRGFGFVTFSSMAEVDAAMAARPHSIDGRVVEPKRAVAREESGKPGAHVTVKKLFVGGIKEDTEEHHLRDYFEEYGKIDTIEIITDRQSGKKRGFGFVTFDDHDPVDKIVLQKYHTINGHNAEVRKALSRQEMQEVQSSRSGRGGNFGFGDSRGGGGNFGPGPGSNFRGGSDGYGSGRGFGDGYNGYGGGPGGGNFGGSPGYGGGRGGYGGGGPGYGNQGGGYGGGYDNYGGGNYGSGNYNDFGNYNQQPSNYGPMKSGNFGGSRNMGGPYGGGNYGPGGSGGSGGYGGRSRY

With `CC(C)(O)[C@H]1Cc2cc3cc(-c4ccc(O)cc4)oc3cc2O1` [MO-460, (R)-4-[6-(1-Hydroxy-1-methylethyl)-5,6-dihydro-benzo[1,2-b;5,4-b’]difuran-2-yl]-phenol], the Kd in assay [1] was found to be 11.4 µM. For the same compound, in assay [2] (50 µM, mimetic hypoxia, qRT-PCR), the “reduction in HIF-1α mRNA level” value was ~ 10% and < 10%. In addition, the “effect on HIF-1α transcript level” value in assay [2] (normoxic condition) is “no observed effect; also recorded: did not affect HIF-1α transcript levels”. For the same compound, the “interaction between hnRNPA2B1 and HIF-1α mRNA” value in assay [3] was “abolished”. Moreover, on HIF-1α protein, the “binding to HIF-1α protein” value is given as “did not bind to HIF-1α protein”.

As usually defined, the Kd is the constant that tells how readily two partners part at equilibrium. Lower therefore signals tighter binding.

These data come from publication PMC6372683, “Mechanism of the natural product moracin-O derived MO-460 and its targeting protein hnRNPA2B1 on HIF-1α inhibition” (Experimental & Molecular Medicine, 2019).
